The source of these data is patent US20160082016A1, “Use of Clonazepam in Combination with Antibiotic in the Treatment of Bacterially Induced Meningitis” (COMMISSARIAT A L'ENERGIE ATOMIQUE ET AUX ENERGIES …, priority 2013, published 2016).

Broadly, the half-life is how long it takes for the measured level to halve.

For data set [1], the system named is Streptococcus Pneumoniae. Briefly: Antibiogram: growth inhibition diameter around paper disks on Mueller-Hinton gelose. The following applies: 24 hours, FIG. 5. Format: cell-based. How it is done:
Antibiograms have been performed on the same Streptococcus Pneumoniae strain, on a Mueller-Hinton gelose plate of 90 mm diameter (Biorad) as follows 40 μL of the prepared bacteria were added to 5 mL PBS and the mix is spread on the gelose plate. The remaining liquid mix is thrown and the plate was incubated at 37° C. during 15 minutes. Antibiotic paper disks of 6mm diameter (Dominique Dutscher) were then overwhelmed with 25 μL of each molecule/combination and placed on the Mueller-Hinton gelose for 24 hours. The inhibition diameter of bacterial cell growth around the disks was then measured. • Ceftriaxone (3,2-1,6-0,8-0,4-0,2-0,1-0,05 μg/mL) • Clonazepam (10-1-0,1 μg/mL) • Ceftriaxone (0,8-0,2-0,05 μg/mL)+Clonazepam (0,1 μg/mL)

In data set [2] the test system is Streptococcus Pneumoniae. Put plainly: Survival of Swiss mice inoculated with Streptococcus Pneumoniae, treated with ceftriaxone plus adjuvant (bacterial meningitis model). Format: in vivo. As to the method:
200 μL of suspended 1 Mc Farland bacteria (Streptococcus Pneumoniae, CRBIP, Institut Pasteur) were seeded overnight on blood Columbia plates (BioRad). 24 h later, bacteria were suspended in 5 mL phosphate buffer solution (PBS), and diluted to obtain 1 Mc Farland 600 nm optical density (3,2.10^7 bacteria/mL for this strain).
A mice model mimicking human bacterial meningitis (Gerber G., Acta Neuropathol. 2001) was implemented; Swiss male mice were used, with food and water ab libitum. Mice were anaesthetized using isoflurane.
The Swiss mice model has been chosen for the following reasons: • It is possible to induce bacterial meningitis in a direct and reproducible way (Gerber G., Acta Neuropathol. 2001). • The induced meningitis is similar to human meningitis (Gerber G., Acta Neuropathol. 2001). In particular, the inoculated mice present several […] symptoms/responses as infected humans. The data obtained with this model can therefore be transposed to human. • Efficiency of antibiotic agents for treating bacterial meningitis is currently studied in mice (Shapiro M. A. et al, J. Antimicrob. Chemother. 2000).
A 1/80 dilution of the prepared bacteria was then performed, so as to obtain 10^4 bacteria in 25 μL. 25 μL bacteria suspension were injected in the left brain hemisphere. 24 h, 48 h and 72 h later, mice were treated with 4 mg/day, 0.4 mg/day and 0.4 mg/day respectively of ceftriaxone. Clonazepam (or saline buffer, or water) was administrated 25 h post inoculation, by intraperitoneal (ip) or oral (po) route. Mortality was assessed several times per day, during 9 days.

In data set [3] the test system is pentylenetetrazol (PTZ) induced tonic seizures. Put plainly: Anti-epileptic effect at low dose: time before pentylenetetrazol (PTZ) induced tonic seizure. Format: in vivo, mice.
The conditions of data set [4]: in vivo; cited from earlier work.

As to `CO/N=C(\C(=O)N[C@@H]1C(=O)N2C(C(=O)O)=C(CSc3nc(=O)c(=O)[nH]n3C)CS[C@H]12)c1csc(N)n1` [ceftriaxone], the Growth inhibition diameter result in the data set on Streptococcus Pneumoniae [1] (ceftriaxone alone 0,05-3,2 μg/mL) is listed as “inhibit bacterial growth in a dose-dependent manner”.
`O=C1CN=C(c2ccccc2Cl)c2cc([N+](=O)[O-])ccc2N1` [clonazepam, 5-(2-chlorphenyl)-1,3-dihydro-7-nitro-2H-1,4-benzodiazepine-2-one]: the Kaplan-Meier survival rate result with Streptococcus Pneumoniae [2] (clonazepam 1 μg/kg ip + ceftriaxone, compared with 4 μg/kg, p=0,045 Logrank, FIG. 2) was “significantly less efficient”; in the data set with Streptococcus Pneumoniae [2] (clonazepam 2 μg/kg ip + ceftriaxone, compared with 4 μg/kg, p=0,045 Logrank, FIG. 2), “significantly less efficient”; with Streptococcus Pneumoniae [2] (clonazepam 4 μg/kg ip 25 h after inoculation + ceftriaxone 4, 0.4, 0.4 mg/day at 24, 48, 72 h, vs ceftriaxone + NaCl, p=0,04 Logrank, FIG. 1) it was “survival increase”; with Streptococcus Pneumoniae [2] (clonazepam 20 μg/kg ip + ceftriaxone, compared with 4 μg/kg, FIG. 1), “not as efficient”; with Streptococcus Pneumoniae [2] (clonazepam 100 μg/kg ip + ceftriaxone, compared with 4 μg/kg, FIG. 1), “not as efficient”. Besides, in the data set on Streptococcus Pneumoniae [2] (clonazepam 4 μg/kg orally + ceftriaxone, compared with intraperitoneally administered combination, FIGS. 1, 3, 6), the “Kaplan-Meier survival rate, oral vs intraperitoneal” value is “lower”. Also, the “Amount giving satisfactory potentiating effects in mice” value in the data set on Streptococcus Pneumoniae [2] (mice, clonazepam with antibiotic) is recorded as “at least 2 μg/kg”. Further, the “Anti-epileptic effect (time before tonic seizures)” value is “no epileptic effect” in data set [3] (Streptococcus Pneumoniae inoculated mice, clonazepam doses inferior to 5 μg/kg, FIG. 4); “no effect” in data set [3] (healthy mice, clonazepam 1 μg/kg ip, FIG. 4); “no effect” in data set [3] (healthy mice, clonazepam 5 μg/kg ip, FIG. 4). For the same compound, the “Anti-epileptic effect at the efficient adjuvant dose” value in data set [3] (clonazepam 4 μg/kg, concluded from the 1-125 μg/kg experiments) is given as “no epileptic effect”. In addition, the “Amount at which clonazepam has an anti-epileptic effect” value in data set [3] (healthy (non inoculated) mice, ip pretreatment 60 min before PTZ, FIG. 4) is ≥ 25 µg/kg. Besides, the “Growth inhibition diameter (potentiation of ceftriaxone in vitro)” value with Streptococcus Pneumoniae [1] (ceftriaxone 0,8-0,2-0,05 μg/mL + clonazepam 0,1 μg/mL) is reported as “Nor is it able to potentiate the antibiotic activity of ceftriaxone in vitro”. Also, in the data set with Streptococcus Pneumoniae [1] (clonazepam alone 10, 1, 0,1 μg/mL), the “Growth inhibition diameter (intrinsic antibiotic activity)” value is “no intrinsic antibiotic activity”. The half-life in data set [4] is 18 to 50 h.
